# Assay results taken from patent US20150223452A1, “COMPOSITION COMPRISING A PESTICIDAL TERPENE MIXTURE AND A FUNGICIDE” (priority 2012, published 2015).
# Like-named read-outs stand apart in the source and are kept apart here.
# What was measured:
# [1] = system: Sphaerotheca fuliginea; assay: Sphaerotheca test (cucumbers)/preventive; assay type: in vivo; settings: 7 days after inoculation
# [2] = system: Venturia inaequalis; assay: Venturia test (apples)/preventive
# [3] = system: two spotted spidermite (Tetranychus urticae); assay: Tetranychus urticae spray test, OP-resistant; assay type: in vivo; settings: 500 g ai/ha; mortality, French beans
# Description: (§1) Solvent: 78.0 parts by weight acetone • 1.5 parts by weight dimethylformamide
# (§2) Emulsifier: 0.5 parts by weight alkylarylpolyglycolether
# (§3) To produce a suitable preparation of active compound, 1 part by weight of active compound is mixed with the stated amount of solvent and emulsifier, and the concentrate is diluted with emulsifier-containing water to the desired concentration.
# French beans (Phaseolus vulgaris) which are heavily infested with all stages of the two spotted spidermite (Tetranychus urticae), are sprayed with a preparation of the active ingredient of the desired concentration.
# After the specified period of time, mortality in % is determined. 100% means that all spider mites have been killed and 0% means that none of the spider mites have been killed. The mortality values determined thus are recalculated using the Colby-formula (see sheet 1).
# [4] = system: Botrytis cinerea; assay: Botrytis test (beans)/preventive; settings: 10 ppm a.i.; size of lesions 2 days after inoculation
# Description: After the spray coating has dried on, 2 small pieces of agar covered with growth of Botrytis cinerea are placed on each leaf.
# 2 days after the inoculation, the size of the lesions on the leaves is evaluated.
# [5] = system: Phytophthora infestans; assay type: in vivo; settings: 3 days after inoculation
# [6] = system: green peach aphid (Myzus persicae); assay: Myzus persicae spray test; assay type: in vivo; settings: 500 g ai/ha; mortality, Chinese cabbage leaf-disks
# Description: as §1, §2, §3
# Chinese cabbage (Brassica pekinensis) leaf-disks infected with all instars of the green peach aphid (Myzus persicae) are sprayed with a preparation of the active ingredient of the desired concentration.
# After the specified period of time, mortality in % is determined. 100% means that all aphids have been killed; 0% means that none of the aphids have been killed. The mortality values determined thus are recalculated using the Colby-formula (see above).
compound,measurement,setting,value
"N#Cc1c[nH]cc1-c1cccc2c1OC(F)(F)O2 [Fludioxonil (F248), fludioxonil]",Efficacy in % found,[1]; 50 ppm a.i.,62%
"O=C(NCCc1ncc(C(F)(F)F)cc1Cl)c1ccccc1C(F)(F)F [F70 fluopyram, fluopyram]",Efficacy in % found,"[2]; 4 ppm a.i., first series",4%
"CC(C)Oc1cccc(NC(=O)c2ccccc2C(F)(F)F)c1 [Flutolanil (F71), flutolanil]",Efficacy in % found,"[2]; 100 ppm a.i., second series",4%
fosetyl-aluminium [Fosetyl-Al (F281)],Efficacy in % after 6 d,[3],70%
fenhexamid [Fenhexamid (F16)],Efficacy in % found,[4],880%
"COCC(=O)N(c1c(C)cccc1C)C(C)C(=O)OC (stereo not drawn) [Metalaxyl (F241), metalaxyl]",Efficacy in % found,[5]; 5 ppm a.i.,5%
metalaxyl-M (mefenoxam) [Mefenoxam (F242)],Efficacy in % found,[5]; 5 ppm a.i.,3%
"COC(=O)N(OC)c1ccccc1COc1ccn(-c2ccc(Cl)cc2)n1 [Pyraclostrobin (F121), pyraclostrobin]",Efficacy in % after 6 d,[6],70%
mancozeb [Mancozeb (F174)],Efficacy in % found,[5]; 20 ppm a.i.,45%
"CO/C=C(/C(=O)OC)c1ccccc1Oc1cc(Oc2ccccc2C#N)ncn1 [Azoxystrobin (F107), azoxystrobin]",Efficacy in % found,[5]; 0.5 ppm a.i.,30%
"Cc1nn(C)c(F)c1C(=O)Nc1ccccc1C(C)CC(C)C (stereo not drawn) [F84 penflufen, penflufen]",Efficacy in % found,"[2]; 2 ppm a.i., first series",0%
"Cn1cc(C(=O)Nc2ccccc2-c2cc(F)c(F)c(F)c2)c(C(F)F)n1 [F72 fluxapyroxad, fluxapyroxad]",Efficacy in % found,[1]; 1 ppm a.i.,29%
same,Efficacy in % found,"[2]; 0.5 ppm a.i., first series",43%
"CCCN(CC)CC1COC2(CCC(C(C)(C)C)CC2)O1 (stereo not drawn) [Spiroxamine (F46), spiroxamine]",Efficacy in % found,[1]; 50 ppm a.i.,19%
"CSC1=N[C@@](C)(c2ccccc2)C(=O)N1Nc1ccccc1 [Fenamidone (F114), fenamidone]",Efficacy in % found,[1]; 50 ppm a.i.,20%
